Assay results reported in patent US8754073B2, “Substituted piperazino-dihydrothienopyrimidines” (Boehringer Ingelheim International GmbH, priority 2007, dated 2014).

molecular target: PDE4B (Homo sapiens, UniProt Q07343); assay: Scintillation Proximity Assay (SPA) of PDE4B enzyme activity ([H3]-cAMP cleavage); assay type: biochemical; conditions: test substance 1 μM; one-hour incubation of [H3]-cAMP with PDE4B enzyme at 30° C.
Description: The inhibitions (in %) at 1 μM of the individual Example substances are given in the following Table of Examples and were determined as follows:
The Scintillation Proximity Assay (SPA) (GE Healthcare, No. TRKQ7090) was carried out by using the different affinities of cyclic 3′-5′-adenosinemonophosphate (cAMP, low affinity) and linear 5′-adenosinemonophosphate (AMP, high affinity) for yttrium silicate scintillator beads. The cAMP specific phosphodiesterase (PDE) PDE4B cleaves the 3′-phosphoester bond of tritium-labelled [H3]-cAMP to form [H3]-5′-AMP. This [H3]-AMP accumulates on the scintillator beads because of its higher affinity for them and causes scintillation events (flashes of light) which are measured in a Wallac Microbeta Scintillation Counter.
The experiment starts with a one-hour incubation of [H3]-cAMP with the PDE4B enzyme in assay buffer at 30° C., in each case once with the Example substance to be tested (in a concentration of 1 μM) and once without the Example substance to be tested.
After this incubation, the reaction is stopped by the addition of the beads. The beads have an opportunity to settle in the next 45 minutes, then the measurement is carried out in the Scintillation Counter. If the substance is capable of inhibiting the enzymatic activity of the PDE4B, less [H3]-AMP is produced during the incubation phase and fewer scintillation events can be measured.

Chain of PDE4B (Q07343 whole entry, species assumed): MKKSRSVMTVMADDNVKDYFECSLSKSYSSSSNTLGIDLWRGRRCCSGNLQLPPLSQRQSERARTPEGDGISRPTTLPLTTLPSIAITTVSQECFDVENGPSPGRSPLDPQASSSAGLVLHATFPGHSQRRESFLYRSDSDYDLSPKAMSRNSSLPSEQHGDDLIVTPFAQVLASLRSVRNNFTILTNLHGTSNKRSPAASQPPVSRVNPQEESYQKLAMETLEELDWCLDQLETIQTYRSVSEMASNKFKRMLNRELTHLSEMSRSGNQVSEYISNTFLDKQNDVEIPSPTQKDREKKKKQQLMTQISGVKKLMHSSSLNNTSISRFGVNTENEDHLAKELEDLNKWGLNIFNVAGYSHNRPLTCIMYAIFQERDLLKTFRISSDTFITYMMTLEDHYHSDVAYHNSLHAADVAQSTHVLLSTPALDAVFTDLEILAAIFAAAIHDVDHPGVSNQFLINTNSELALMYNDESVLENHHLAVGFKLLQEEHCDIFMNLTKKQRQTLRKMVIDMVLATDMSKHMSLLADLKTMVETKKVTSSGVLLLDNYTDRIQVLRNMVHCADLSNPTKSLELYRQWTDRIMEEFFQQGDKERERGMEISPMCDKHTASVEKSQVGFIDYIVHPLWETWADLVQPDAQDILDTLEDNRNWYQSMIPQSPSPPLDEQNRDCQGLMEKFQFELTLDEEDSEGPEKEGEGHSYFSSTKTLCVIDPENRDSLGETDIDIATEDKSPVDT

Row | SMILES | inhibition at 1 µM [%]
1 | CC(C)[C@H](CO)Nc1nc(N2CCC(O)(c3cc(F)cc(F)c3)CC2)nc2c1[S+]([O-])CC2 (some centres unmarked) [Example 18] | 92
2 | [O-][S+]1CCc2nc(N3CCC(c4nc(-c5cccnc5)no4)CC3)nc(NC3CCOCC3)c21 (centres unmarked) [Example 131] | 94
3 | [O-][S+]1CCc2nc(N3CCC(c4noc5ccc(F)cc45)CC3)nc(NC3CCOCC3)c21 (centres unmarked) [Example 122] | 96
4 | Cc1noc(C2CCN(c3nc4c(c(N[C@H]5CCC(=O)N(C)C5)n3)[S+]([O-])CC4)CC2)n1 (some centres unmarked) [Example 53] | 96
5 | [O-][S+]1CCc2nc(N3CCC(c4ccc(Cl)cc4)CC3)nc(NC3(CO)CC3)c21 (centres unmarked) [Example 2, (1-{2-[4-(4-Chlorophenyl)-Piperidin-1-Yl]-5-Oxo-6,7-Dihydro-5H-5λ^4-Thieno[3,2-d]Pyrimidin-4-Ylamino}-Cyclopropyl)-Methanol] | 94
6 | [O-][S+]1CCc2nc(N3CCC4(CC3)OCc3ccccc34)nc(Nc3cccc(F)c3)c21 (centres unmarked) [Example 140] | 83
7 | COc1ccc(C2CCN(c3nc4c(c(Nc5cccc(F)c5)n3)[S+]([O-])CC4)CC2)cc1 (centres unmarked) [Example 133] | 95
8 | CN1C[C@@H](Nc2nc(N3CCC4(CC3)CN(S(C)(=O)=O)c3ccccc34)nc3c2[S+]([O-])CC3)CCC1=O (some centres unmarked) [Example 44] | 95
9 | [O-][S+]1CCc2nc(N3CCC(c4ccccc4F)CC3)nc(NC3CCOCC3)c21 (centres unmarked) [Example 88] | 92
10 | [O-][S+]1CCc2nc(N3CCC(c4nc5ccccc5o4)CC3)nc(NC3(CO)CC3)c21 (centres unmarked) [Example 98, {1-[2-(4-Benzoxazol-2-Yl-Piperidin-1-Yl)-5-Oxo-6,7-Dihydro-5H-5λ^4-Thieno[3,2-d]Pyrimidin-4-Ylamino]-Cyclopropyl}-Methanol] | 97
11 | [O-][S+]1CCc2nc(N3CCC(c4nc(-c5cccnc5)no4)CC3)nc(Nc3cccc(F)c3)c21 (centres unmarked) [Example 146] | 96
12 | [O-][S+]1CCc2nc(N3CCC(c4ccc(F)cc4F)CC3)nc(NC3(CO)CC3)c21 (centres unmarked) [Example 89, (1-{2-[4-(2,4-Difluorophenyl)-Piperidin-1-Yl]-5-Oxo-6,7-Dihydro-5H-5λ^4-Thieno[3,2-d]Pyrimidin-4-Ylamino}-Cyclopropyl)-Methanol] | 93
13 | COC(=O)c1ccc(C2CCN(c3nc4c(c(NC5CCOCC5)n3)[S+]([O-])CC4)CC2)cc1 (centres unmarked) [Example 119] | 95
14 | [O-][S+]1CCc2nc(N3CCC(c4cccc(Cl)c4)CC3)nc(NC3(CO)CC3)c21 (centres unmarked) [Example 39] | 96
15 | CCOC(=O)c1ccc2c(C3CCN(c4nc5c(c(NC6(CO)CC6)n4)[S+]([O-])CC5)CC3)c[nH]c2c1 (centres unmarked) [Example 29, ethyl 3-{1-[4-(1-hydroxymethylcyclopropylamino)-5-oxo-6,7-dihydro-5H-5λ^4-thieno[3,2-d]pyrimidin-2-yl]-piperidin-4-yl}-1H-indole-6-carboxylate] | 97
16 | [O-][S+]1CCc2nc(N3CCC(O)(c4cc(F)cc(F)c4)CC3)nc(NC3CCOCC3)c21 (centres unmarked) [Example 62] | 96
17 | [O-][S+]1CCc2nc(N3CCC(c4ccncc4)CC3)nc(NC3(CO)CC3)c21 (centres unmarked) [Example 34] | 92
18 | CC(C)[C@H](CO)Nc1nc(N2CCC3(CC2)OC(=O)Nc2ccccc23)nc2c1[S+]([O-])CC2 (some centres unmarked) [Example 21] | 83
19 | CC(C)c1noc(C2CCN(c3nc4c(c(NC5CCOCC5)n3)[S+]([O-])CC4)CC2)n1 (centres unmarked) [Example 129] | 93

same assay, conditions: test substance 1 μM; one-hour incubation with [H3]-cAMP at 30° C.

Row | SMILES | inhibition at 1 µM [%]
20 | [O-][S+]1CCc2nc(N3CCC(Oc4ccccc4Cl)CC3)nc(NC3CCOCC3)c21 (centres unmarked) [Example 179] | 75
21 | [O-][S+]1CCc2nc(N3CCC(c4ccccc4)CC3)nc(NC3(CO)CC3)c21 (centres unmarked) [Example 164] | 92
22 | COC(=O)c1cccc(OC2CCN(c3nc4c(c(NC5CCOCC5)n3)[S+]([O-])CC4)CC2)c1 (centres unmarked) [Example 177] | 93
23 | CCN(CC)CCOc1ccc(OC2CCN(c3nc4c(c(NC5CCOCC5)n3)[S+]([O-])CC4)CC2)cc1 (centres unmarked) [Example 178, (2-{4-[4-(2-diethylamino-ethoxy)-phenoxy]-piperidin-1-yl}-5-oxo-6,7-dihydro-5H-5λ^4-thieno[3,2-d]pyrimidin-4-yl)-(tetrahydropyran-4-yl)-amine] | 92

The next lines start with the values.

Row | inhibition at 1 µM [%] | SMILES
24 | 91 | CC(C)[C@H](CO)Nc1nc(N2CCC(C(=O)c3ccc(F)cc3)(c3ccc(F)cc3)CC2)nc2c1[S+]([O-])CC2 (some centres unmarked) [Example 298]
25 | 97 | Cn1nc(-c2ccco2)cc1C1CCN(c2nc3c(c(NC4CCOCC4)n2)[S+]([O-])CC3)CC1 (centres unmarked) [Example 200, {2-[4-(5-furan-2-yl-2-methyl-2H-pyrazol-3-yl)-piperidin-1-yl]-5-oxo-6,7-dihydro-5H-5λ^4-thieno[3,2-d]pyrimidin-4-yl}-(tetrahydropyran-4-yl)-amine]
26 | 85 | CC(C)[C@H](CO)Nc1nc(N2CCC(CN(C)S(C)(=O)=O)(c3ccccc3)CC2)nc2c1[S+]([O-])CC2 (some centres unmarked) [Example 331]
27 | 96 | CN1C[C@@H](Nc2nc(N3CCC(c4nc5cc(F)ccc5o4)CC3)nc3c2[S+]([O-])CC3)CCC1=O (some centres unmarked) [Example 195, 5-{2-[4-(5-fluorobenzoxazol-2-yl)-piperidin-1-yl]-5-oxo-6,7-dihydro-5H-5λ^4-thieno[3,2-d]pyrimidin-4-ylamino}-1-methylpiperidin-2-one]
28 | 89 | O=C(c1ccc(F)cc1)C1(c2ccc(F)cc2)CCN(c2nc3c(c(NC4(CO)CC4)n2)[S+]([O-])CC3)CC1 (centres unmarked) [Example 308]
29 | 95 | Cc1nn(C)cc1C(C)NC(=O)c1ccc(OC2CCN(c3nc4c(c(NC5CCOCC5)n3)[S+]([O-])CC4)CC2)cc1 (centres unmarked) [Example 244]
30 | 93 | CN(C(=O)c1cccc(C2CCN(c3nc4c(c(NC5CCOCC5)n3)[S+]([O-])CC4)CC2)c1)C1CC1 (centres unmarked) [Example 249, N-cyclopropyl-N-methyl-3-{1-[5-oxo-4-(tetrahydropyran-4-ylamino)-6,7-dihydro-5H-5λ^4-thieno[3,2-d]pyrimidin-2-yl]-piperidin-4-yl}-benzamide]
31 | 95 | CN1C[C@@H](Nc2nc(N3CCC(CN(C)S(C)(=O)=O)(c4ccccc4)CC3)nc3c2[S+]([O-])CC3)CCC1=O (some centres unmarked) [Example 270, N-methyl-N-{1-[4-(1-methyl-6-oxo-piperidin-3-ylamino)-5-oxo-6,7-dihydro-5H-5λ^4-thieno[3,2-d]pyrimidin-2-yl]-4-phenylpiperidin-4-ylmethyl}-methanesulphonamide]
32 | 94 | CN(C(=O)c1ccc(OC2CCN(c3nc4c(c(NC5CCOCC5)n3)[S+]([O-])CC4)CC2)cc1)C1CC1 (centres unmarked) [Example 242, N-Cyclopropyl-N-Methyl-4-{1-[5-Oxo-4-(Tetrahydropyran-4-Ylamino)-6,7-Dihydro-5H-5λ^4-Thieno[3,2-d]Pyrimidin-2-Yl]-Piperidin-4-Yloxy}-Benzamide]
33 | 92 | CN1C[C@@H](Nc2nc(N3CCC(O)(c4ccc(Cl)cc4)CC3)nc3c2[S+]([O-])CC3)CCC1=O (some centres unmarked) [Example 254]
34 | 89 | COC1(c2ccc(Cl)cc2)CCN(c2nc3c(c(NC4CCOCC4)n2)[S+]([O-])CC3)CC1 (centres unmarked) [Example 313]
35 | 97 | CN1C[C@@H](Nc2nc(N3CCC(c4cc(-c5ccco5)n[nH]4)CC3)nc3c2[S+]([O-])CC3)CCC1=O (some centres unmarked) [Example 190]
36 | 83 | CC(C)[C@H](CO)Nc1nc(N2CCC(c3cc(-c4cccs4)[nH]n3)CC2)nc2c1[S+]([O-])CC2 (some centres unmarked) [Example 292]
37 | 94 | [O-][S+]1CCc2nc(N3CCC(c4n[nH]c5ccccc45)CC3)nc(NC3CCOCC3)c21 (centres unmarked) [Example 221]
38 | 98 | CN1C[C@@H](Nc2nc(N3CCC(c4cc5ccccc5o4)CC3)nc3c2[S+]([O-])CC3)CCC1=O (some centres unmarked) [Example 187]
39 | 89 | CC(C)[C@H](CO)Nc1nc(N2CCC(COCc3ccccc3)(c3ccc(Cl)cc3)CC2)nc2c1[S+]([O-])CC2 (some centres unmarked) [Example 307]
40 | 88 | CC(C)[C@H](CO)Nc1nc(N2CCC(CNS(C)(=O)=O)(c3ccccc3)CC2)nc2c1[S+]([O-])CC2 (some centres unmarked) [Example 326]
41 | 95 | CCCN1C[C@@H](Nc2nc(N3CCC(c4ccc(Cl)cc4)CC3)nc3c2[S+]([O-])CC3)CCC1=O (some centres unmarked) [Example 201, 5-{2-[4-(4-chlorophenyl)-piperidin-1-yl]-5-oxo-6,7-dihydro-5H-5λ^4-thieno[3,2-d]pyrimidin-4-ylamino}-1-propylpiperidin-2-one]
42 | 97 | CN1C[C@@H](Nc2nc(N3CCC(c4nc(-c5ccncc5)no4)CC3)nc3c2[S+]([O-])CC3)CCC1=O (some centres unmarked) [Example 188]
43 | 94 | Cc1nn(C)cc1CNC(=O)c1ccc(OC2CCN(c3nc4c(c(NC5CCOCC5)n3)[S+]([O-])CC4)CC2)cc1 (centres unmarked) [Example 263]
44 | 91 | CN(C(=O)c1cccc(C2CCN(c3nc4c(c(NC5CCOCC5)n3)[S+]([O-])CC4)CC2)c1)C1CCOCC1 (centres unmarked) [Example 256]
45 | 93 | CN(C(=O)c1ccc(C2CCN(c3nc4c(c(NC5CCOCC5)n3)[S+]([O-])CC4)CC2)cc1)C1CCOCC1 (centres unmarked) [Example 224]
46 | 91 | COCC1(c2ccc(Cl)cc2)CCN(c2nc3c(c(Nc4cccc(F)c4)n2)[S+]([O-])CC3)CC1 (centres unmarked) [Example 305]
47 | 91 | N#Cc1ccc(OC2CCN(c3nc4c(c(NC5(CO)CC5)n3)[S+]([O-])CC4)CC2)cc1 (centres unmarked) [Example 322]
